Measured values published in PubChem BioAssay (NCI).
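Method: 48-hour compound exposure of cells in 96-well plates, five concentrations, linear interpolation of endpoints. TGI marks complete inhibition of growth.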

Legend:
Assay in all cases: NCI tumour cell line growth inhibition, 48 h
786-0 renal = test system: 786-0 renal
A498 renal = test system: A498 renal
A549 NSCLC = test system: A549 NSCLC
ACHN renal = test system: ACHN renal
CAKI-1 renal = test system: CAKI-1 renal
CCRF-CEM leukemia = test system: CCRF-CEM leukemia
COLO 205 colon = test system: COLO 205 colon
DLD-1 colon = test system: DLD-1 colon
DMS 273 small cell lung = test system: DMS 273 small cell lung
EKVX NSCLC = test system: EKVX NSCLC
HCC-2998 colon = test system: HCC-2998 colon
HCT-116 colon = test system: HCT-116 colon
HCT-15 colon = test system: HCT-15 colon
HL-60(TB) leukemia = test system: HL-60(TB) leukemia
HOP-18 NSCLC = test system: HOP-18 NSCLC
HOP-62 NSCLC = test system: HOP-62 NSCLC
HOP-92 NSCLC = test system: HOP-92 NSCLC
HT29 colon = test system: HT29 colon
IGROV1 ovarian = test system: IGROV1 ovarian
K-562 leukemia = test system: K-562 leukemia
KM12 colon = test system: KM12 colon
KM20L2 colon = test system: KM20L2 colon
LOX IMVI melanoma = test system: LOX IMVI melanoma
LXFL 529 NSCLC = test system: LXFL 529 NSCLC
M14 melanoma = test system: M14 melanoma
M19-MEL melanoma = test system: M19-MEL melanoma
MALME-3M melanoma = test system: MALME-3M melanoma
MOLT-4 leukemia = test system: MOLT-4 leukemia
NCI-H23 lung = test system: NCI-H23 lung
NCI-H460 lung = test system: NCI-H460 lung
OVCAR-3 ovarian = test system: OVCAR-3 ovarian
OVCAR-4 ovarian = test system: OVCAR-4 ovarian
OVCAR-5 ovarian = test system: OVCAR-5 ovarian
OVCAR-8 ovarian = test system: OVCAR-8 ovarian
RPMI-8226 leukemia = test system: RPMI-8226 leukemia
RXF 393 renal = test system: RXF 393 renal
SF-268 CNS = test system: SF-268 CNS
SF-295 CNS = test system: SF-295 CNS
SF-539 CNS = test system: SF-539 CNS
SK-MEL-2 melanoma = test system: SK-MEL-2 melanoma
SK-MEL-5 melanoma = test system: SK-MEL-5 melanoma
SK-OV-3 ovarian = test system: SK-OV-3 ovarian
SN12C renal = test system: SN12C renal
SNB-19 CNS = test system: SNB-19 CNS
SNB-75 CNS = test system: SNB-75 CNS
SNB-78 CNS = test system: SNB-78 CNS
SW-620 colon = test system: SW-620 colon
TK-10 renal = test system: TK-10 renal
U251 CNS = test system: U251 CNS
UACC-257 melanoma = test system: UACC-257 melanoma
UACC-62 melanoma = test system: UACC-62 melanoma
UO-31 renal = test system: UO-31 renal
DMS 114 small cell lung = test system: DMS 114 small cell lung
NCI-H226 lung = test system: NCI-H226 lung
NCI-H522 lung = test system: NCI-H522 lung
SK-MEL-28 melanoma = test system: SK-MEL-28 melanoma
SR leukemia = test system: SR leukemia
XF 498 CNS = test system: XF 498 CNS

CN1CCc2c1nc(-c1ccccc1)c1c2N(C)CC1
TGI (786-0 renal): > 100 µM
TGI (A498 renal): > 100 µM
TGI (A549 NSCLC): > 100 µM
TGI (ACHN renal): > 100 µM
TGI (CAKI-1 renal): > 100 µM
TGI (CCRF-CEM leukemia): > 100 µM
TGI (COLO 205 colon): > 100 µM
TGI (DLD-1 colon): > 100 µM
TGI (DMS 273 small cell lung): > 100 µM
TGI (EKVX NSCLC): > 100 µM
TGI (HCC-2998 colon): > 100 µM
TGI (HCT-116 colon): > 100 µM
TGI (HCT-15 colon): > 100 µM
TGI (HL-60(TB) leukemia): > 100 µM
TGI (HOP-18 NSCLC): 78.6 µM
TGI (HOP-62 NSCLC): > 100 µM
TGI (HOP-92 NSCLC): 91 µM
TGI (HT29 colon): > 100 µM
TGI (IGROV1 ovarian): > 100 µM
TGI (K-562 leukemia): > 100 µM
TGI (KM12 colon): > 100 µM
TGI (KM20L2 colon): > 100 µM
TGI (LOX IMVI melanoma): > 100 µM
TGI (LXFL 529 NSCLC): > 100 µM
TGI (M14 melanoma): > 100 µM
TGI (M19-MEL melanoma): > 100 µM
TGI (MALME-3M melanoma): > 100 µM
TGI (MOLT-4 leukemia): > 100 µM
TGI (NCI-H23 lung): > 100 µM
TGI (NCI-H460 lung): > 100 µM
TGI (OVCAR-3 ovarian): > 100 µM
TGI (OVCAR-4 ovarian): > 100 µM
TGI (OVCAR-5 ovarian): > 100 µM
TGI (OVCAR-8 ovarian): > 100 µM
TGI (RPMI-8226 leukemia): > 100 µM
TGI (RXF 393 renal): > 100 µM
TGI (SF-268 CNS): > 100 µM
TGI (SF-295 CNS): > 100 µM
TGI (SF-539 CNS): > 100 µM
TGI (SK-MEL-2 melanoma): > 100 µM
TGI (SK-MEL-5 melanoma): > 100 µM
TGI (SK-OV-3 ovarian): > 100 µM
TGI (SN12C renal): > 100 µM
TGI (SNB-19 CNS): > 100 µM
TGI (SNB-75 CNS): > 100 µM
TGI (SNB-78 CNS): > 100 µM
TGI (SW-620 colon): > 100 µM
TGI (TK-10 renal): > 100 µM
TGI (U251 CNS): > 100 µM
TGI (UACC-257 melanoma): > 100 µM
TGI (UACC-62 melanoma): > 100 µM
TGI (UO-31 renal): 78.5 µM

C/C(CN1C(=O)c2ccccc2C1=O)=N\NS(=O)(=O)c1ccc(Br)cc1
TGI (786-0 renal): > 100 µM
TGI (A498 renal): > 100 µM
TGI (A549 NSCLC): > 100 µM
TGI (ACHN renal): > 100 µM
TGI (CAKI-1 renal): > 100 µM
TGI (CCRF-CEM leukemia): > 100 µM
TGI (COLO 205 colon): > 100 µM
TGI (DLD-1 colon): > 100 µM
TGI (DMS 114 small cell lung): 68.8 µM
TGI (DMS 273 small cell lung): > 100 µM
TGI (EKVX NSCLC): > 100 µM
TGI (HCC-2998 colon): > 100 µM
TGI (HCT-116 colon): > 100 µM
TGI (HCT-15 colon): > 100 µM
TGI (HL-60(TB) leukemia): > 100 µM
TGI (HOP-18 NSCLC): > 100 µM
TGI (HOP-62 NSCLC): > 100 µM
TGI (HOP-92 NSCLC): > 100 µM
TGI (HT29 colon): > 100 µM
TGI (IGROV1 ovarian): > 100 µM
TGI (K-562 leukemia): > 100 µM
TGI (KM12 colon): > 100 µM
TGI (KM20L2 colon): > 100 µM
TGI (LOX IMVI melanoma): > 100 µM
TGI (LXFL 529 NSCLC): > 100 µM
TGI (M14 melanoma): > 100 µM
TGI (M19-MEL melanoma): > 100 µM
TGI (MALME-3M melanoma): > 100 µM
TGI (MOLT-4 leukemia): > 100 µM
TGI (NCI-H226 lung): > 100 µM
TGI (NCI-H23 lung): > 100 µM
TGI (NCI-H460 lung): > 100 µM
TGI (NCI-H522 lung): > 100 µM
TGI (OVCAR-3 ovarian): > 100 µM
TGI (OVCAR-4 ovarian): > 100 µM
TGI (OVCAR-5 ovarian): > 100 µM
TGI (OVCAR-8 ovarian): > 100 µM
TGI (RPMI-8226 leukemia): > 100 µM
TGI (RXF 393 renal): > 100 µM
TGI (SF-268 CNS): > 100 µM
TGI (SF-295 CNS): > 100 µM
TGI (SF-539 CNS): > 100 µM
TGI (SK-MEL-2 melanoma): > 100 µM
TGI (SK-MEL-28 melanoma): > 100 µM
TGI (SK-MEL-5 melanoma): > 100 µM
TGI (SK-OV-3 ovarian): > 100 µM
TGI (SN12C renal): > 100 µM
TGI (SNB-19 CNS): > 100 µM
TGI (SNB-75 CNS): > 100 µM
TGI (SNB-78 CNS): > 100 µM
TGI (SW-620 colon): > 100 µM
TGI (TK-10 renal): > 100 µM
TGI (U251 CNS): > 100 µM
TGI (UACC-257 melanoma): > 100 µM
TGI (UACC-62 melanoma): > 100 µM
TGI (UO-31 renal): > 100 µM

CCOC(C[C@H](O)[C@H]1COC(=S)S1)OCC
TGI (786-0 renal): > 100 µM
TGI (A549 NSCLC): > 100 µM
TGI (ACHN renal): > 100 µM
TGI (COLO 205 colon): > 100 µM
TGI (DMS 114 small cell lung): > 100 µM
TGI (DMS 273 small cell lung): > 100 µM
TGI (EKVX NSCLC): > 100 µM
TGI (HCC-2998 colon): > 100 µM
TGI (HCT-116 colon): > 100 µM
TGI (HCT-15 colon): > 100 µM
TGI (HL-60(TB) leukemia): > 100 µM
TGI (HOP-62 NSCLC): > 100 µM
TGI (HT29 colon): > 100 µM
TGI (IGROV1 ovarian): > 100 µM
TGI (KM12 colon): > 100 µM
TGI (KM20L2 colon): > 100 µM
TGI (LOX IMVI melanoma): > 100 µM
TGI (LXFL 529 NSCLC): > 100 µM
TGI (M14 melanoma): > 100 µM
TGI (M19-MEL melanoma): > 100 µM
TGI (MALME-3M melanoma): > 100 µM
TGI (NCI-H226 lung): > 100 µM
TGI (NCI-H23 lung): > 100 µM
TGI (NCI-H460 lung): > 100 µM
TGI (NCI-H522 lung): > 100 µM
TGI (OVCAR-3 ovarian): > 100 µM
TGI (OVCAR-8 ovarian): > 100 µM
TGI (RPMI-8226 leukemia): > 100 µM
TGI (RXF 393 renal): > 100 µM
TGI (SF-268 CNS): > 100 µM
TGI (SF-295 CNS): > 100 µM
TGI (SF-539 CNS): > 100 µM
TGI (SK-MEL-5 melanoma): > 100 µM
TGI (SN12C renal): > 100 µM
TGI (SNB-19 CNS): > 100 µM
TGI (SR leukemia): > 100 µM
TGI (SW-620 colon): > 100 µM
TGI (TK-10 renal): > 100 µM
TGI (U251 CNS): > 100 µM
TGI (UACC-257 melanoma): > 100 µM
TGI (UACC-62 melanoma): > 100 µM
TGI (UO-31 renal): > 100 µM
TGI (XF 498 CNS): > 100 µM

NCC1(N2CCOCC2)C2CCCC21CO (configuration not stated)
TGI (786-0 renal): > 100 µM
TGI (A549 NSCLC): > 100 µM
TGI (ACHN renal): > 100 µM
TGI (CAKI-1 renal): > 100 µM
TGI (CCRF-CEM leukemia): > 100 µM
TGI (COLO 205 colon): > 100 µM
TGI (DLD-1 colon): > 100 µM
TGI (DMS 114 small cell lung): > 100 µM
TGI (DMS 273 small cell lung): > 100 µM
TGI (HCC-2998 colon): > 100 µM
TGI (HCT-116 colon): > 100 µM
TGI (HCT-15 colon): > 100 µM
TGI (HL-60(TB) leukemia): > 100 µM
TGI (HOP-18 NSCLC): > 100 µM
TGI (HOP-62 NSCLC): > 100 µM
TGI (HOP-92 NSCLC): > 100 µM
TGI (HT29 colon): > 100 µM
TGI (IGROV1 ovarian): > 100 µM
TGI (K-562 leukemia): > 100 µM
TGI (KM12 colon): > 100 µM
TGI (LXFL 529 NSCLC): > 100 µM
TGI (M14 melanoma): > 100 µM
TGI (M19-MEL melanoma): > 100 µM
TGI (MALME-3M melanoma): > 100 µM
TGI (MOLT-4 leukemia): > 100 µM
TGI (NCI-H226 lung): > 100 µM
TGI (NCI-H23 lung): > 100 µM
TGI (NCI-H460 lung): > 100 µM
TGI (NCI-H522 lung): > 100 µM
TGI (OVCAR-3 ovarian): > 100 µM
TGI (OVCAR-4 ovarian): > 100 µM
TGI (OVCAR-5 ovarian): > 100 µM
TGI (OVCAR-8 ovarian): > 100 µM
TGI (RPMI-8226 leukemia): > 100 µM
TGI (RXF 393 renal): > 100 µM
TGI (SF-268 CNS): > 100 µM
TGI (SF-295 CNS): > 100 µM
TGI (SF-539 CNS): > 100 µM
TGI (SK-MEL-2 melanoma): > 100 µM
TGI (SK-MEL-28 melanoma): > 100 µM
TGI (SK-MEL-5 melanoma): > 100 µM
TGI (SK-OV-3 ovarian): > 100 µM
TGI (SN12C renal): > 100 µM
TGI (SNB-19 CNS): > 100 µM
TGI (SNB-75 CNS): > 100 µM
TGI (SNB-78 CNS): > 100 µM
TGI (SR leukemia): > 100 µM
TGI (SW-620 colon): > 100 µM
TGI (U251 CNS): > 100 µM
TGI (UACC-257 melanoma): > 100 µM
TGI (UO-31 renal): > 100 µM
